Assay results published in PMC11396062, “The n-Butanol Extract Obtained from the Inner Bark of Tabebuia rosea (Bertol.) DC, Specioside, and Catalposide Induce Leukemia Cell Apoptosis in the Presence of Apicidin” (Molecules, 2024).
Converted amounts (≈) assume the structure as drawn.

Tests used:
[1] = tested on: Bcl-2; assay: Western blot Bcl-2 protein; assay type: cell-based, human; settings: THP-1, catalposide 44 μg/mL, specioside 40 μg/mL, APC pretreatment (Figure 9)
Description: (§1) THP-1 cells were seeded in 24-well plates (5 × 10^5 cells/well), and after 24 h of incubation, they were pretreated with 1 µM apicidin for 24 h and then treated with different concentrations of the n-butanol extract, catalposide, and specioside for 24 h. After treatment, the cells were lysed with an Abcam protein extraction kit (ab270054), and a phosphatase inhibitor cocktail (ab201115) was added. The supernatants of the cell extracts were quantified with a BCA protein assay (Thermo Scientific Pierce #23227, Waltham, MA, USA). Equivalent amounts of protein were electrophoresed on 10% SDS polyacrylamide gels and then electroblotted onto 0.45 μm polyvinylidene difluoride (PVDF) membranes (GE Healthcare, Chicago, IL, USA). […] The signals were detected using SuperSignal™ West Pico PLUS Chemiluminescent Substrate (Thermo Scientific Pierce cat 34577) and analyzed with a ChemiDoc XRS+ system (Bio-Rad, Hercules, CA, USA). The density of each band was measured using ImageJ software V. 1.53n, 7 November 2021 (NIH, Bethesda, MD, USA), and the protein levels were normalized to the GAPDH levels. The data are expressed as the means of three independent experiments. […]

[2] = tested on: BCL2; assay: RT-qPCR BCL2 mRNA expression; assay type: cell-based, human; settings: THP-1, catalposide 44 μg/mL, specioside 40 μg/mL
Description: After treatment, mRNA extraction was performed using the RNeasy Plus Mini Kit (Qiagen, Germantown, MD, USA; Cat No. 74134). The mRNA was quantified with a NanoDrop 2000c (Thermo Fisher Scientific, Waltham, MA, USA). The expression of the MAPK14 (gene encoding p38), BCL2, and BAX genes was evaluated by qRT–PCR and quantified with the 2^−ΔΔCt method in the Applied Biosystems StepOnePlus Real-Time PCR System (Applied Biosystems, Foster City, CA, USA), which uses predesigned TaqMan Gene Expression Assays (codes […], Hs00608023_m1, and Hs00180269_m1, respectively) (Applied Biosystems, Foster City, CA, USA) and the TaqMan® RNA-to-CT TM 1-Step Kit (Applied Biosystems, Foster City, CA, USA, Cat No. 4392653). The reaction mixture was incubated at 48 °C for 15 min and 95 °C for 10 min and then cycled (40 cycles) at 95 °C for 15 s and 60 °C for 1 min. GAPDH was used as an endogenous control.

[3] = tested on: BAX; assay: Western blot Bax protein; assay type: cell-based, human; settings: THP-1, catalposide 44 and 66 μg/mL, specioside 20, 40 and 60 μg/mL
Description: as §1

[4] = tested on: Peripheral blood mononuclear cells (PBMCs); assay: MTT cell viability assay, PBMC (normal cells); assay type: cell-based; settings: Homo sapiens, n = 3
Description: Jurkat and THP-1 cell lines were purchased from the American Type Culture Collection (ATCC, Rockville, MD, USA); Jurkat is a human lymphocytic cell line representing acute T-cell leukemia, and THP-1 is a monocytic cell line that represents acute myelogenous leukemia (AML). Jurkat and THP-1 cells were maintained in RPMI 1640 medium (Sigma) supplemented with 10% heat-inactivated fetal bovine serum (FBS) (Gibco Cat No. 16140071, Waltham, MA USA), 200 μg/mL penicillin, 200 μg/mL streptomycin, 400 μg/mL neomycin (GIBCO, Cat No. 15640-055), 5 μg/mL amphotericin, and 1 mM sodium pyruvate (all from Sigma Chemical Co., Saint Louis, MO, USA; Cat Nos. A9528-50 MG, M7522-100ML, and S8636-100ML, respectively). The cells were maintained at 37 °C in a humidified atmosphere with 5% CO2. The culture medium was exchanged with fresh medium every 2–3 days. Peripheral blood mononuclear cells (PBMCs) were isolated from normal human venous blood. Further, 10 milliliters of human blood was mixed with 10 mL of RPMI-1640 containing 50 µL of heparin and gradually poured over 1 mL of HISTOPAQUE®-1119 (Sigma). The plasma was removed by centrifugation at 3000 rpm for 30 min. The peripheral blood mononuclear cell-containing layer was collected with a pipette and diluted in 4 mL of PBS. PBMCs were harvested by centrifugation at 1500 rpm for 10 min at room temperature, resuspended in RPMI-1640 with 10% FBS, and incubated at 37 °C in 5% CO2 humidified air.
Cell viability was determined by measuring the mitochondrial activity of live cells via the metabolism of the tetrazolium substrate 3-(4,5-dimethylthiazol-2-yl)-2,5-diphenyl tetrazolium bromide (MTT) and converting it to purple formazan crystals. Briefly, the cells (2 × 10^4 cells/well) were treated with 25, 50, 100, 200, or 400 μg/mL extract diluted in DMSO (at a final concentration of 0.5%) and incubated for 12, 24, or 48 h. Catalposide and specioside were tested at concentrations of 20, 50, and 100 μg/mL for 12, 24, and 48 h. For apicidin, 0.5, 1, and 2 μM apicidin were tested for 24 and 48 h. Doxorubicin was used as a reference standard drug (positive control). After treatment, the medium was discarded; 200 μL of RPMI 1640 medium without phenol red containing 0.5 mg/mL MTT (Sigma Chemical Co., Saint Louis, MO, USA; Cat. No. M2128-500MG) was then added to each well. The plates were incubated for four hours at 37 °C with 5% CO2 in a humidified atmosphere. The medium was discarded, and 100 μL of DMSO was added to solubilize the formazan crystals. The absorbance was measured with an ELISA microplate reader at 492 nm (ELx800; BioTek Instruments Inc., Winooski, VT, USA). The percentage of viable cells was calculated on the basis of the nontreated control (taken as 100%). The IC50 (concentration causing a 50% reduction in cellular viability) values for all the tested compounds were evaluated in Excel using the nonlinear regression curve method. Three independent assays were performed, each in triplicate.

| SMILES | antiapoptotic protein Bcl-2 (Western blot) [1] | expression of Bcl-2 mRNA with APC [2] | expression of Bax protein with APC pretreatment [3] | IC50 ([4]; 12 h) | IC50 ([4]; 24 h) | IC50 ([4]; 48 h) |
| --- | --- | --- | --- | --- | --- | --- |
| O=C(O[C@H]1[C@@H]2C=CO[C@@H](O[C@@H]3O[C@H](CO)[C@@H](O)[C@H](O)[C@H]3O)[C@@H]2[C@@]2(CO)O[C@@H]12)c1ccc(O)cc1 [Catalposide, catalposide] | decrease | decreased | increased | 126 ± 2.8 µg/mL (≈ 260 µM) | 87.7 ± 3.1 µg/mL (≈ 182 µM) | 43.4 ± 3.4 µg/mL (≈ 90 µM) |
| O=C(/C=C/c1ccc(O)cc1)O[C@H]1[C@@H]2C=CO[C@@H](O[C@@H]3O[C@H](CO)[C@@H](O)[C@H](O)[C@H]3O)[C@@H]2[C@@]2(CO)O[C@@H]12 [Specioside] | decrease | decreased | increased | 165 ± 3.1 µg/mL (≈ 325 µM) | 70.7 ± 3.7 µg/mL (≈ 139 µM) | 54.2 ± 3.7 µg/mL (≈ 107 µM) |
